Test results taken from ChEMBL document CHEMBL1140588, “Design and synthesis of potent amido- and benzyl-substituted cis-3-amino-4-(2-cyanopyrrolidide)pyrrolidinyl DPP-IV inhibitors” (Bioorg Med Chem Lett, 2007).

What was measured:
hERG (KCNH2) = hERG (KCNH2) (Homo sapiens, UniProt Q12809); test: Displacement of [3H]dofetilide from hERG at 10 uM; settings: probe [3H]dofetilide, read-out: Activity
Dipeptidyl peptidase 8 = Dipeptidyl peptidase 8 (Homo sapiens, UniProt Q6V1X1); test: Inhibition of human DPP8
Sequence of Dipeptidyl peptidase 8 (Q6V1X1 whole entry): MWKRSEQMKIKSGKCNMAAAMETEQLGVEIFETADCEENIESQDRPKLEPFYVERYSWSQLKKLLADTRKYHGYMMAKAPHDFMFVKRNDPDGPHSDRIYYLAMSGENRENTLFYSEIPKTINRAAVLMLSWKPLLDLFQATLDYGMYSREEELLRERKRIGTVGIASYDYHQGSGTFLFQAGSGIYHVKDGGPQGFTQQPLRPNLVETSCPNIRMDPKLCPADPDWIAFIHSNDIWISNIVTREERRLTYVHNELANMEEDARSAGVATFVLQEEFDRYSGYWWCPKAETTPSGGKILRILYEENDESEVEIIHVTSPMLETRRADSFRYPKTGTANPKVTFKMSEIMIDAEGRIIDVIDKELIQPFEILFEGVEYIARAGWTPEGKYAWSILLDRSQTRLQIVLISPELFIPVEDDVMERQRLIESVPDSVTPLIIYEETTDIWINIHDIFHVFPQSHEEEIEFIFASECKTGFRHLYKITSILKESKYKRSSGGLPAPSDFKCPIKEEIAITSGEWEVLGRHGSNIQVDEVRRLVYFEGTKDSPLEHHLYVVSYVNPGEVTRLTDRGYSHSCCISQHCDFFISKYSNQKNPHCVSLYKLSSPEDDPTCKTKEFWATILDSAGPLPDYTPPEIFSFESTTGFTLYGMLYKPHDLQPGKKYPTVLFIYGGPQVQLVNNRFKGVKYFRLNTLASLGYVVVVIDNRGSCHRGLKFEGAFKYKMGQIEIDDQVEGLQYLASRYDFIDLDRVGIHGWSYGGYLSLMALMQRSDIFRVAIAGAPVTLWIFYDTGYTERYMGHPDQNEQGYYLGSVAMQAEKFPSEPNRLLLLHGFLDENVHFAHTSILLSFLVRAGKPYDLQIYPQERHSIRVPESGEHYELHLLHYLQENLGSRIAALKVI

[1] = Bioavailability in Sprague-Dawley rat at 5 mg/kg, po; type: ADME, organism-based; settings: in vivo
Rattus norvegicus [2] = test: Inhibition of DPP4 in Sprague-Dawley rat at 5 mg/kg, po between 4 to 6 hrs; type: functional; parameters: scale not given: the % may be the effect or the level left
[3] = biological target: Voltage-gated inwardly rectifying potassium channel KCNH2 (Homo sapiens, UniProt Q12809); test: Inhibition of hERG by patch clamp assay; type: toxicity
Sequence of Voltage-gated inwardly rectifying potassium channel KCNH2 (Q12809 whole entry): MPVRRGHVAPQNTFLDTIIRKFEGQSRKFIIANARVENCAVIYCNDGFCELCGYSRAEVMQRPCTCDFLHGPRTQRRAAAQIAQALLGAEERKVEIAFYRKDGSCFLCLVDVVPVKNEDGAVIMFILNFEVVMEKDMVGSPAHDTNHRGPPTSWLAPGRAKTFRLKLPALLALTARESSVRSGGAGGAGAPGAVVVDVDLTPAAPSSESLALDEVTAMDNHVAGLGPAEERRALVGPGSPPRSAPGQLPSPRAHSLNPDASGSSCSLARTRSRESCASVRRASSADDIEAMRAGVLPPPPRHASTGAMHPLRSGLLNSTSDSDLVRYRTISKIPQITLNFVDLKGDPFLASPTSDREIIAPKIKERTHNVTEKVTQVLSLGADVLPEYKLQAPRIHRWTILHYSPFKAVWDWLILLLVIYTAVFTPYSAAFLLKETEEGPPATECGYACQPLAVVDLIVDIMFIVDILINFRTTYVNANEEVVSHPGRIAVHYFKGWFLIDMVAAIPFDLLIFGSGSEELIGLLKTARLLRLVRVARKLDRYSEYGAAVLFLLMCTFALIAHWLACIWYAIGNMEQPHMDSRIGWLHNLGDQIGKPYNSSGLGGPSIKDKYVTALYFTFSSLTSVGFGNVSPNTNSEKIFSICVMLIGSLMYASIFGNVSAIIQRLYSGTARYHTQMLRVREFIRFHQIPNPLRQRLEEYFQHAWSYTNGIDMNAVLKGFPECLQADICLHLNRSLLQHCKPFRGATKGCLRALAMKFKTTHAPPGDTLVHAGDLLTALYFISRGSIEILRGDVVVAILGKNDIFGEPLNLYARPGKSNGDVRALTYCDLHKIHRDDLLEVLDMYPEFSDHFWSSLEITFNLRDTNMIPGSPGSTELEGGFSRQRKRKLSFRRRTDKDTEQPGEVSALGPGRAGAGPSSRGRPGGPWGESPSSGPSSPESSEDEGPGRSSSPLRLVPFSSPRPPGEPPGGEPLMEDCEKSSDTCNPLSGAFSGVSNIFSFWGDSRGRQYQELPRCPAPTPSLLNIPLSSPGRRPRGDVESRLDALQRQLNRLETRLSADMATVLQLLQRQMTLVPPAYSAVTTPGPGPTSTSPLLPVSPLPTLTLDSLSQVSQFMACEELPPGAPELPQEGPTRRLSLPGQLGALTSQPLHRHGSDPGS

[4] = Plasma protein binding in Sprague-Dawley rat at 5 mg/kg, po; type: ADME, organism-based; parameters: dose 5 mg/kg, route oral; settings: read-out: PB (converted)
[5] = Half life in Sprague-Dawley rat at 5 mg/kg, po; type: ADME, organism-based; parameters: dose 5 mg/kg, route oral; settings: in vivo
Rattus norvegicus [6] = test: AUC(0 to infinity) in Sprague-Dawley rat at 5 mg/kg, po; type: ADME, organism-based, Plasma; parameters: time infinity, dose 5 mg/kg, route oral; settings: in vivo
Rattus norvegicus [7] = species on record: Rattus norvegicus; test: Inhibition of DPP4 in Sprague-Dawley rat; type: functional
[8] = Cmax in Sprague-Dawley rat at 5 mg/kg, po; type: ADME, organism-based; parameters: dose 5 mg/kg, route oral; settings: in vivo

Sequence of hERG (KCNH2) (Q12809 whole entry): as above

Row | IC50 (Dipeptidyl peptidase 8) [µM] | SMILES | inhibition at 10 µM (hERG (KCNH2)) [%] | further results
1 | 0.56 | N#Cc1ccc(CN2C[C@H](N)[C@H](C(=O)N3CCC[C@H]3C#N)C2)cc1 | 47 | –
2 | 0.148 | Cn1nccc1-c1ccc(CN2C[C@H](N)[C@H](C(=O)N3CCC[C@H]3C#N)C2)cc1 | 36 | –
3 | 0.858 | Cc1ncn(-c2ccc(CN3C[C@H](N)[C@H](C(=O)N4CCC[C@H]4C#N)C3)cc2)n1 | 4 | bioavailability [1]: 36%; Activity (Rattus norvegicus [2]): 51%
4 | 3.29 | N#C[C@@H]1CCCN1C(=O)[C@@H]1CN(Cc2cnc3ccccc3c2)C[C@@H]1N | 36 | –
5 | – | N[C@H]1CN(C(=O)c2cc3ccccc3s2)C[C@H]1C(=O)N1CCCC1 | 5 | –
6 | – | N[C@H]1CN(C(=O)c2ccc3ccccc3c2)C[C@H]1C(=O)N1CCCC1 | 4 | –
7 | 0.326 | N#C[C@@H]1CCCN1C(=O)[C@@H]1CN(Cc2ccc(-c3cc[nH]n3)cc2)C[C@@H]1N | 65 | –
8 | 0.363 | Cn1cc(-c2ccc(CN3C[C@H](N)[C@H](C(=O)N4CCC[C@H]4C#N)C3)cc2)cn1 | 71 | –
9 | 0.19 | N#C[C@@H]1CCCN1C(=O)[C@@H]1CN(Cc2ccc(-c3csnn3)cc2)C[C@@H]1N | 91 | –
10 | – | N#Cc1ccc2c(c1)CCC2N1C[C@H](N)[C@H](C(=O)N2CCC[C@H]2C#N)C1 (some centres undefined) | 88 | –
11 | – | N[C@H]1CN(C(=O)c2ccc(-n3cnnn3)cc2)C[C@H]1C(=O)N1CCCC1 | 15 | –
12 | 1.04 | CC(c1ccc(C#N)cc1)N1C[C@H](N)[C@H](C(=O)N2CCC[C@H]2C#N)C1 (some centres undefined) | 18 | IC50 [3]: 10 µM
13 | – | N[C@H]1CN(C(=O)c2ccc3ncccc3c2)C[C@H]1C(=O)N1CCCC1 | 19 | –
14 | – | N[C@H]1CN(C(=O)c2cc3ccccc3cn2)C[C@H]1C(=O)N1CCCC1 | 0.5 | –
15 | – | N[C@H]1CN(C(=O)c2cnc3ccccc3c2)C[C@H]1C(=O)N1CCCC1 | 9 | –
16 | – | N[C@H]1CN(Cc2ccc(-n3cnnn3)cc2)C[C@H]1C(=O)N1CCCC1 | 43 | –
17 | – | N#Cc1cc(CN2C[C@H](N)[C@H](C(=O)N3CCCC3)C2)ccc1F | 9 | –

Row | IC50 (Dipeptidyl peptidase 8) [µM] | SMILES | inhibition at 10 µM (hERG (KCNH2)) [%] | further results
18 | – | N[C@H]1CN(Cc2ccc(-c3csnn3)cc2)C[C@H]1C(=O)N1CCCC1 | 84 | –
19 | – | Cc1cc(-n2cncn2)ccc1CN1C[C@H](N)[C@H](C(=O)N2CCC[C@H]2C#N)C1 | 62 | –
20 | – | N[C@H]1CN(Cc2cnc3ccccc3c2)C[C@H]1C(=O)N1CCCC1 | 32 | –
21 | 0.461 | N#C[C@@H]1CCCN1C(=O)[C@@H]1CN(Cc2ccc(-n3cncn3)cc2)C[C@@H]1N | 40 | IC50 [3]: 1.8 µM
22 | – | CC(c1ccc([N+](=O)[O-])cc1)N1C[C@H](N)[C@H](C(=O)N2CCCC2)C1 (some centres undefined) | 13 | –
23 | 0.704 | Cc1nnc(-c2ccc(CN3C[C@H](N)[C@H](C(=O)N4CCC[C@H]4C#N)C3)cc2)o1 | 4 | IC50 [3]: 165 µM
24 | – | Cc1cc(CN2C[C@H](N)[C@H](C(=O)N3CCC[C@H]3C#N)C2)cc(C)c1C#N | 21 | IC50 [3]: 28.9 µM
25 | 0.247 | N#C[C@@H]1CCCN1C(=O)[C@@H]1CN(Cc2ccc(-n3nccn3)cc2)C[C@@H]1N | 49 | –
26 | – | CC(c1ccc(-n2cncn2)cc1)N1C[C@H](N)[C@H](C(=O)N2CCC[C@H]2C#N)C1 (some centres undefined) | 7 | fraction unbound [4]: 0.77; bioavailability [1]: 30.6%; half-life [5]: 4.3 h; AUC (Rattus norvegicus [6]): 7703 ng·h/mL; Inhibition (Rattus norvegicus [7]): 86%; Cmax [8]: 1400 ng/mL
27 | – | N#C[C@@H]1CCCN1C(=O)[C@@H]1CN(C2CCOc3ccccc32)C[C@@H]1N (some centres undefined) | 7 | –
28 | – | N[C@H]1CN(C(=O)c2ccc(-n3cncn3)cc2)C[C@H]1C(=O)N1CCCC1 | 14 | –
29 | – | N[C@H]1CN(C(=O)c2cc3cc(Cl)ccc3o2)C[C@H]1C(=O)N1CCCC1 | 14 | –
30 | – | Cc1cc(CN2C[C@H](N)[C@H](C(=O)N3CCC[C@H]3C#N)C2)ccc1-n1cncn1 | 17 | –
31 | – | N[C@H]1CN(C(=O)c2cnc3ccccc3n2)C[C@H]1C(=O)N1CCCC1 | 0.241 | IC50 [3]: > 300 µM
32 | – | N[C@H]1CN(Cc2ccc(F)c(F)c2)C[C@H]1C(=O)N1CCCC1 | 19 | –
33 | – | CCc1cc(CN2C[C@H](N)[C@H](C(=O)N3CCC[C@H]3C#N)C2)cc(CC)c1C#N | 3 | –
34 | 0.922 | N#Cc1cc(CN2C[C@H](N)[C@H](C(=O)N3CCC[C@H]3C#N)C2)ccc1F | 10 | –
